system: phospho-GSK3 (Ser9); experiment: Cellular pGSK3 assay (phospho-GSK3 ELISA); type: cell-based; conditions: Homo sapiens, MCF7 cells, 48 h incubation, read-out: Cellular pGSK3 pathway assay
Protocol: In order to study the cellular activity of the compounds according to the present invention, an ELISA-based assay has been established for the phosphorylated protein glycogen synthetase kinase 3 (GSK3). The assay is based on a solid phase sandwich ELISA that detects endogenous levels of phosphorylated GSK3 using a phospho-GSK3 (Ser9) specific antibody (BioSource International, Inc.; Catalog #KHO0461). After incubation with cell lysates, the coated antibody captures the phosphorylated GSK3 protein. Following extensive washing, GSK3 polyclonal antibody is added to detect the captured phospho-GSK3 protein. Secondary antibody (anti-rabbit IgG-HRP) is then used to recognize the bound detection antibody. After the second incubation and washing to remove all the excess anti-rabbit IgG-HRP, a substrate solution is added, which is acted upon by the bound enzyme to produce color. The intensity of this colored product is directly proportional to the concentration of GSK-3β [pS9] present in the original specimen. MCF7 cells (ATCC HTB-22) were seeded into 96 well fate bottom plates at a density of 10000 cells/well. After 24 h 1 μl each of the compound dilutions (test compounds were dissolved as 10 mM solutions in dimethylsulfoxide (DMSO) and subsequently diluted) were added into each well of the 96 well plates and incubated for 48 h at 37° C. in a humidified atmosphere containing 5% CO2. Cells were harvested and lysed in cell extraction buffer (10 mM Tris, pH 7.4, 100 mM NaCl, 1 mM EDTA, 1 mM EGTA, 1 mM NaF, 20 mM Na4P2O7, 2 mM Na3VO4, 1% Triton X-100, 10 vol % glycerol, 0.1 vol % SDS, 0.5 vol % deoxycholate, 1 mM phenylmethylsulfonylfluoride (PMSF)). The lysate were centrifuged for 10 min. at 4° C. and the supernatant were transferred to a new tube. 50 μl of sample diluent (standard diluent buffer, Biosource) were added and 100 μl of cell lysate transferred into the tube and vortexed. 100 μl of each diluted cell lysate were added to the appropriate ELISA well plate and incubated for 3 h at room temperature. The plates were washed 4 times with 1× wash buffer (Biosource). 50 μl of detection antibody (GSK3 (Ser9) detection antibody; BioSource) were added to each well and incubated for 30 min. at room temperature. The washing procedure was repeated between each step. 100 μl of HRP-linked secondary antibody (anti-mouse IgG HRP-linked antibody) were added to each well and incubated for 30 min. at room temperature. 100 μl of TMB substrate (0.05 vol % 3,3′,5,5′ tetramethylbenzidine, 0.1 vol % hydrogen peroxide, complex polypeptides in a buffered solution; Biosource) were added to each well and incubated for 30 min. at room temperature. Finally 100 μl of Stop solution (0.05 vol % α and β unsaturated carbonyl compound) were added to each well and the plate were shaked gently for a few seconds. The absorbance was measured at λ=450 nm (Wallac Victor2; Perkin Elmer, USA) within 30 min. after adding the stop solution.
The analysis of the data was performed using a statistical program (Excel; Microsoft, USA) and the IC50 of pGSK3 inhibition was determined.

First: CC(c1ccc(-c2nc3nccn3cc2-c2ccccc2)cc1)N1CCC(c2n[nH]c(-c3ccccn3)n2)CC1 (racemic) [Example 23, 6-phenyl-7-(4-{1-[4-(5-pyridin-2-yl-1H-1,2,4-triazol-3-yl)piperidin-1-yl]ethyl}phenyl)imidazo[1,2-a]pyrimidine]
Second: Cc1ccnc(-c2nc(C3CCN(Cc4ccc(-c5nc6nccn6cc5-c5ccccc5)cc4)CC3)n[nH]2)c1 [Example 35, 7-[4-({4-[5-(4-Methylpyridin-2-yl)-1H-1,2,4-triazol-3-yl]piperidin-1-yl}methyl)phenyl]-6-phenylimidazo[1,2-a]pyrimidine]
The IC50 of the first is higher: greater than 10000 nM for the first, 1000 to 10000 nM for the second.

First: Fc1cnc2nc(-c3ccc(CN4CCC(c5n[nH]c(-c6ncccn6)n5)CC4)cc3)c(-c3ccccc3)cn12 [Example 25, 3-fluoro-6-phenyl-7-(4-{[4-(5-pyrimidin-2-yl-1H-1,2,4-triazol-3-yl)piperidin-1-yl]methyl}phenyl)imidazo[1,2-a]pyrimidine]
Second: Fc1cnc2nc(-c3ccc(CN4CCC(c5n[nH]c(-c6cnccn6)n5)CC4)cc3)c(-c3ccccc3)cn12 [Example 24, 3-fluoro-6-phenyl-7-(4-{[4-(5-pyrazin-2-yl-1,2,4-triazol-3-yl)piperidin-1-yl]methyl}phenyl)imidazo[1,2-a]pyrimidine]
The IC50 of the first is higher: greater than 10000 nM for the first, 1000 to 10000 nM for the second. The second is the more potent here.

`Cc1cccc(-c2nc(C3CCN(Cc4ccc(-c5nc6nccn6cc5-c5ccccc5)cc4)CC3)n[nH]2)n1` [Example 36, 7-[4-({4-[5-(6-Methylpyridin-2-yl)-1H-1,2,4-triazol-3-yl]piperidin-1-yl}methyl)phenyl]-6-phenylimidazo[1,2-a]pyrimidine] and `CCc1nc2nc(-c3ccc(CN4CCC(c5n[nH]c(-c6ccccn6)n5)CC4)cc3)c(-c3ccccc3)cn2n1` [Example 40, 2-Ethyl-6-phenyl-5-(4-{[4-(5-pyridin-2-yl-1H-1,2,4-triazol-3-yl)piperidin-1-yl]methyl}phenyl)[1,2,4]triazolo[1,5-a]pyrimidine] cannot be ordered by IC50: less than 1000 nM for the first, less than 1000 nM for the second.

First: C#Cc1cnn2cc(-c3ccccc3)c(-c3ccc(CN4CCC(c5n[nH]c(-c6ccccn6)n5)CC4)cc3)nc12 [Example 33, 3-Ethynyl-6-phenyl-5-(4-{[4-(5-pyridin-2-yl-1H-1,2,4-triazol-3-yl)piperidin-1-yl]methyl}phenyl)pyrazolo[1,5-a]pyrimidine]
Second: N#Cc1cnn2cc(-c3ccccc3)c(-c3ccc(CN4CCC(c5n[nH]c(-c6ccccn6)n5)CC4)cc3)nc12 [Example 32, 6-Phenyl-5-(4-{[4-(5-pyridin-2-yl-1H-1,2,4-triazol-3-yl)piperidin-1-yl]methyl}phenyl)pyrazolo[1,5-a]pyrimidine-3-carbonitrile]
The IC50 of the first is higher: 1000 to 10000 nM for the first, less than 1000 nM for the second.

First: CCc1cnn2cc(-c3ccccc3)c(-c3ccc(CN4CCC(c5n[nH]c(-c6ccccn6)n5)CC4)cc3)nc12 [Example 34, 3-Ethyl-6-phenyl-5-(4-{[4-(5-pyridin-2-yl-1H-1,2,4-triazol-3-yl)piperidin-1-yl]methyl}phenyl)pyrazolo[1,5-a]pyrimidine]
Second: Brc1cnn2cc(-c3ccccc3)c(-c3ccc(CN4CCC(c5n[nH]c(-c6ccccn6)n5)CC4)cc3)nc12 [Example 31, 3-Bromo-6-phenyl-5-(4-{[4-(5-pyridin-2-yl-1H-1,2,4-triazol-3-yl)piperidin-1-yl]methyl}phenyl)pyrazolo[1,5-a]pyrimidine]
The IC50 of the first is higher: 1000 to 10000 nM for the first, less than 1000 nM for the second. The second is the more potent here.

Work on `Clc1cnn2cc(-c3ccccc3)c(-c3ccc(CN4CCC(c5n[nH]c(-c6ccccn6)n5)CC4)cc3)nc12` [Example 30, 3-Chloro-6-phenyl-5-(4-{[4-(5-pyridin-2-yl-1H-1,2,4-triazol-3-yl)piperidin-1-yl]methyl}phenyl)pyrazolo[1,5-a]pyrimidine] yielded an IC50 of less than 1000 nM.

— patent US8614218B2, “Fused bicyclic pyrimidines” (Bayer Intellectual Property GmbH, priority 2007, dated 2013)
